The record followed here is PMC5749703, “Isolation and characterization of a novel metagenomic enzyme capable of degrading bacterial phytotoxin toxoflavin” (PLoS ONE, 2018).

The test system of the experiment is T1, TxeA.
T1 construct: no evidence of oligomer
Briefly: toxoflavin degradation, initial velocities (HPLC). It is filed as biochemical, uncultured bacterium. The settings on record: pH 5.0, 20°C; Mn2+, DTT and oxygen required (DTT reduces toxoflavin to dihydrotoxoflavin). On the procedure:
toxoflavin degradation, initial velocities (HPLC) on TxeA | apparent binding constants of substrate (KM) and catalytic efficiency (kcat/KM) for TxeA were determined

A word on the Km: it is the substrate concentration at which the rate is half of its maximum. Consider `Cn1ncnc2c(=O)n(C)c(=O)nc1-2` [toxoflavin, 1,6-dimethylpyrimido[5,4-e]-1,2,4-triazine-5,7(1H,6H)-dione], for which the Km is 14 µM.
